Patent US8633226B2, “Piperidinyl derivative as a modulator of chemokine receptor activity” (Bristol-Myers Squibb Company, priority 2008, dated 2014)
Where two headings read alike, the source gives them in different places.

How the values were obtained:
[1] = molecular target: Human CCR1 (Homo sapiens (Human), UniProt P32246); assay: Human CCR1 THP-1 binding assay; conditions: [125I]-MIP-1α competition, THP-1 cells
Experimental: For radioligand competition studies, a final concentration of 1×10^5 THP-1 monocytic leukemia cells are combined with 100 μg of LS WGA PS beads (Amersham, Cat.#: RPNQ 0260) in 40 μL of assay buffer (RPMI 1640 without phenol red, 50 mM HEPES, 5 mM MgCl2, 1 mM CaCl2, 0.1% BSA). The THP-1 cell/bead mixture was added to each well of a 384-well assay plate (PerkinElmer, Cat. #:6007899) containing test compound in 3-fold serial dilution, with final concentrations ranging from 8 μM to 0.14 nM. A final concentration of 0.1 nM [^125I]-MIP-1α (PerkinElmer, Cat. #NEX298) in 20 μL assay buffer was added to the reaction. Unlabeled MIP-1α was added in excess to some wells to determine non-specific binding. Sealed assay plates were incubated at room temperature for 12 h then analyzed by LEADseeker™.
The competition data of the test compound over a range of concentrations is plotted as percentage inhibition of radioligand specifically bound in the absence of test compound (percent of total signal). After correcting for non-specific binding, IC50 values are determined. The IC50 value is defined as the concentration of test compound needed to reduce [^125I]-MIP-1α specific binding by 50% and is calculated using the four parameter logistic equation to fit the normalized data. The Ki values are determined by application of the Cheng-Prusoff equation to the IC50 values, where Ki=IC50/(1+ligand concentration/Kd). The Kd of [^125I]-MIP-1α in THP-1 cells is 0.1 nM. Each experiment was run in duplicate.

[2] = molecular target: Human PXR (Homo sapiens (Human), UniProt O75469); assay: PXR transactivation assay; format: cell-based; conditions: HepG2 cells, CYP3A-Luc reporter; reported as EC60
Excerpt: The cell culture medium used is DMEM. […] Charcoal/dextran treated fetal bovine serum (FBS) was purchased from Hyclone (Logan, Utah). HepG2 cells were obtained from ATCC (Manassas, Va.). Human PXR-pcDNA3 and luciferase reporter containing CYP3A4 promoter, CYP3A-Luc, were generated at Bristol-Myers Squibb. White tissue culture (TC)-surface 384-well plates were purchased from Perkin Elmer (Boston, Mass.). Luciferase substrate (Steady-Glo) was purchased from Promega (Madison, Wis.). Control compounds rifampicin, mifepristone, and sulfinpyrazone were purchased from Sigma (St. Louis, Mo.).
Culture of HepG2 cells is performed in T175 flasks using DMEM containing 10% FBS. The transfection mixture contains 1 μg/mL of PXR-pcDNA3 plasmid DNA, 20 μg/ml of Cyp3A-Lue plasmid DNA, 90 μL/mL of Lipofectamine 2000, and serum-free medium. After incubating at room temperature for 20 minutes, the transfection mixture (1 ml per flask) is applied to the cells in fresh medium (20 mL per flask), and flasks incubated at 37° C. (5% CO2) overnight.
The flasks are then tapped vigorously to break up cell aggregates. After the addition of 8 mL of DMEM containing 5% charcoal/dextran-treated FBS, the entire mixture is transferred to conical tubes. Cells are then centrifuged at 1000 rpm for 5 minutes. Cell pellets are resuspended to a final count of ˜7×10^6 cells/ml, in freezing media (DMEM containing 20% serum and 10% DMSO). The cell suspension is aliquoted into 15-mL polypropylene tubes, 5 mL per tube. Cells are slowly frozen by placing in a Styrofoam-insulated container at −80° C. overnight. Vials are transferred to an Ultracold (−140° C.) freezer after 24 hours for long-term storage.
Vials of cryopreserved cells are thawed rapidly in a warm water bath for five minutes. Cells are pooled and diluted to 50 mL in a 50-mL conical vial. The thawed cells are centrifuged at 1500 rpm for 5 minutes to collect the cells and the supernatant discarded. Cells are then resuspended in fresh Media II (DMEM containing 5% charcoal/dextran-treated FBS, 1% Penicillin/Streptomycin, 100 μM Non-essential Amino Acids, 1 mM Sodium Pyruvate, and 2 mM L-Glutamine), counted using the Guava Cell Counter, and diluted to 1.6×10^5 cells/ml in the same media.
Fifty microliters of cell mixture is added to wells in columns 1-23 of white tissue-culture treated 384-well plates containing 0.25 μL of test compound dissolved in 100% DMSO. Fifty microliters of Media II is added to wells in column 24. The plates are incubated at 37° C. (5% CO2) for 24 hours, then 5 μL of Alamar Blue reagent (Trek Diagnostics, Cat #00-100) is added to each well. Plates are then incubated an additional two hours at 37° C., 5% CO2 and then one hour at room temperature. […] After the fluorescence is measured, 25 μL of luciferase substrate (Steady-Glo, Promega) is added to each well. The plates are incubated for fifteen minutes at room temperature, after which the luminescence is read on a PheraStar (BMG Labtech) plate reader.
Rifampicin (10 μM), a well-known agonist of PXR, is included in each plate as an internal standard and positive control. The data is then expressed as percent control (% CTRL), where the control signal is the signal from the 10 μM rifampicin and the blank signal is that from the DMSO vehicle. % CTRL=((Compound signal−Blank signal)/(Control signal−Blank signal))*100
The EC50 is defined as the concentration corresponding to half of the maximal response derived from the fitted 20-point curve as determined using a four-parameter logistic regression model. Additionally, compounds may also be reported as EC20 or EC60.

[3] = In vitro metabolism assay, human liver microsomes, Assay Conditions A; format: in vitro ADME; conditions: 0.5 μM compound, 10 minutes, 37° C.
Experimental: Test compound is received as a 3.5 mM stock solution in 100 percent DMSO. Compound is diluted to create a 50 μM acetonitrile (ACN) solution containing 1.4% DMSO, which is then used as a 100× stock for incubation with microsomes. Each compound is tested in duplicate separately in each of three species in the Metabolic Stability-Human, Rat, and Mouse assay suite or as individual species in the Metabolic Stability-Dog or Metabolic Stability-Monkey suites. Compound, NADPH and liver microsome solutions are combined for incubation in three steps:
152 μL of liver microsome suspension, protein concentration of 1.1 mg/mL in 100 mM NaPi, pH 7.4, 6.6 mM MgCl2 buffer, is pre-warmed at 37° C.
• 1) 1.7 μL of 50 μM compound (98.6% ACN, 1.4% DMSO) is added to the same tube and pre-incubated at 37° C. for 5 minutes. • 2) The reaction is initiated by the addition of 17 μL of pre-warmed 10 mM NADPH solution in 100 mM NaPi, pH 7.4. • 3) Reaction components are mixed well, and 75 μL are immediately transferred into 150 μl quench/stop solution (zero-time point, T0). Reactions are incubated at 37° C. for 10 minutes and then an additional 75 μL aliquot is transferred into 150 μL quench solution. Acetonitrile containing 100 μM DMN (a UV standard for injection quality control), is used as the quench solution to terminate metabolic reactions. • 4) Quenched mixtures are centrifuged at 1500 rpm (˜500×g) in an Allegra X-12 centrifuge, SX4750 rotor (Beckman Coulter Inc., Fullerton, Calif.) for fifteen minutes to pellet denatured microsomes. A volume of 90 μL of supernatant extract, containing the mixture of parent compound and its metabolites, is then transferred to a separate 96-well plate for UV-LC/MS-MS analysis to determine the percent of parent compound that is remaining in the mixture. • 5)

[4] = molecular target: hERG (Homo sapiens (Human), UniProt Q12809); assay: hERG patch clamp assay; format: cell-based; conditions: HEK-293 cells stably expressing hERG, pH 7.4, protein-free buffer, read-out: hERG, % inh @ 30 μM
Experimental: Whole-cell patch-clamp was used to directly measure hERG tail currents in HEK-293 cells stably expressing the cloned hERG potassium channel α subunit. Effects of compounds were calculated by measuring inhibition of peak tail current. Experiments were carried out using an aqueous buffer with pH 7.4 at room temperature. There was no protein in the assay buffer. The test concentrations reported are nominal free drug levels.

[5] = molecular target: human cardiac sodium channel SCN5A (Homo sapiens (Human), UniProt Q14524); assay: Sodium channel whole-cell patch-clamp assay; format: cell-based; conditions: HEK-293 cells expressing human cardiac sodium channel SCN5A, pH 7.4, protein-free buffer, read-out: Na, % inh
Experimental: Whole-cell patch-clamp was used to directly measure inward sodium currents in HEK-293 cells expressing the human cardiac sodium channel, SCN5A. After reach steady-state effect in the presence of drug, rate-dependence was assessed by stimulation at frequencies of 1 Hz and 4 Hz. Experiments were carried out using an aqueous buffer at pH 7.4 and at room temperature. There is no protein in the buffer and drug concentrations reported are nominal free drug levels. Test article was evaluated up to 10 μM (protein-free buffer). Rate-dependence of inhibition was assessed by stimulation at frequencies of 1 Hz and 4 Hz.

[6] = molecular target: human cardiac L-type Ca channel (α1C) and its β subunit (Homo sapiens (Human), UniProt Q13936); assay: L-type calcium channel whole-cell patch-clamp assay; format: cell-based; conditions: HEK-293 cells, protein-free buffer
Experimental: In addition to the potential for interaction with the L-type calcium channel, whole-cell patch-clamp was used to directly measure inward calcium currents in HEK-293 cells stably expressing the cloned human cardiac L-type Ca channel (α1C) and its β subunit. Effects of compounds were calculated by measuring inhibition of peak current. Experiments were carried out using an aqueous buffer at pH 7.4 and at room temperature. There is no protein in the buffer and drug concentrations reported are nominal free drug levels.

[7] = Protein binding, human; format: in vitro ADME
[8] = Protein binding, rabbit; format: in vitro ADME
[9] = Electrocardiography in anesthetized rabbits; format: in vivo; conditions: male, blood, anesthetized rabbit, iv
Experimental: (§1) A dose-response study of test compound was conducted in anesthetized rabbits to assess the cardiac electrophysiologic profile established in the cellular ion channel assays.
(§2) Experiments were performed in propofol-fentanyl anesthetized closed-chest male rabbits. A body surface electrocardiogram (ECG) and an intra-cardiac His-bundle electrogram were continuously monitored and recorded during the studies, using a PoNeMah system and a Prucka electrophysiological recording system, respectively. Test compound was prepared on the day of study in a vehicle of PEG400:ethanol:water (1:1:1) at a dosing concentration of 30 mg/mL. Test compound (n=3) or vehicle (n=3) was given intravenously over 5 minutes via an infusion pump at incremental doses of 3, 10 and 30 mg/kg. The interval between doses was 10 minutes, allowing for a 5-minute test agent infusion and a 5-minute rest period. Blood was sampled at baseline (pre-drug infusion) and immediately at the end of each infusion. For the 30 mg/kg dose, additional blood samples were taken at 10, 20 and 30 minutes after the end of infusion.
(§3) PR interval, QRS duration and QT interval were averaged from a 1 minute ECG recording period at time of blood sampling. QT interval was corrected for heart rate effects using both Fridericia (QTcf) and Van der Water (QTcv) formulae. AH and HV intervals, representing A-V node conduction and His-Purkinje conduction, respectively, were assessed by manual measurements from the His-bundle electrogram. Data were expressed as percent change from pre-drug baseline (mean±SEM) for PR, QRS, AH and HV intervals as well as delta change from the pre-drug infusion baseline (mean±SEM) for QTc intervals. Changes of ≧10% in PR, QRS, and AH intervals, and 20% in HV interval, as well as >10 ms in QTc interval are considered significant based on experience with the model.

[10] = system: anesthetized rabbits; assay: Electrocardiography in anesthetized rabbits; format: in vivo; conditions: anesthetized rabbit; for Cmax: Free drug at QT effect dose / Cmax: Free drug at NOEL dose: iv
Experimental: as §1, §2, §3

Sequence of Human CCR1 (P32246 whole entry): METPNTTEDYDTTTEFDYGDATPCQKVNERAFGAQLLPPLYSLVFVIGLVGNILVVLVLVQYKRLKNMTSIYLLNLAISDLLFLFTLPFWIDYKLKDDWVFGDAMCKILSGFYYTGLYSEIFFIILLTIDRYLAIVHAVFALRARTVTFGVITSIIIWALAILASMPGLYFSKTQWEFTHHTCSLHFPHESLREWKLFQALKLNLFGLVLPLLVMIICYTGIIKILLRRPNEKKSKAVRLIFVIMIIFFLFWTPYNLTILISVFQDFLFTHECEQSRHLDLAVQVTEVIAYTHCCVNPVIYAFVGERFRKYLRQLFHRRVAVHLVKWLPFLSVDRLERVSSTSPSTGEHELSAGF
Sequence of human cardiac sodium channel SCN5A (Q14524 whole entry): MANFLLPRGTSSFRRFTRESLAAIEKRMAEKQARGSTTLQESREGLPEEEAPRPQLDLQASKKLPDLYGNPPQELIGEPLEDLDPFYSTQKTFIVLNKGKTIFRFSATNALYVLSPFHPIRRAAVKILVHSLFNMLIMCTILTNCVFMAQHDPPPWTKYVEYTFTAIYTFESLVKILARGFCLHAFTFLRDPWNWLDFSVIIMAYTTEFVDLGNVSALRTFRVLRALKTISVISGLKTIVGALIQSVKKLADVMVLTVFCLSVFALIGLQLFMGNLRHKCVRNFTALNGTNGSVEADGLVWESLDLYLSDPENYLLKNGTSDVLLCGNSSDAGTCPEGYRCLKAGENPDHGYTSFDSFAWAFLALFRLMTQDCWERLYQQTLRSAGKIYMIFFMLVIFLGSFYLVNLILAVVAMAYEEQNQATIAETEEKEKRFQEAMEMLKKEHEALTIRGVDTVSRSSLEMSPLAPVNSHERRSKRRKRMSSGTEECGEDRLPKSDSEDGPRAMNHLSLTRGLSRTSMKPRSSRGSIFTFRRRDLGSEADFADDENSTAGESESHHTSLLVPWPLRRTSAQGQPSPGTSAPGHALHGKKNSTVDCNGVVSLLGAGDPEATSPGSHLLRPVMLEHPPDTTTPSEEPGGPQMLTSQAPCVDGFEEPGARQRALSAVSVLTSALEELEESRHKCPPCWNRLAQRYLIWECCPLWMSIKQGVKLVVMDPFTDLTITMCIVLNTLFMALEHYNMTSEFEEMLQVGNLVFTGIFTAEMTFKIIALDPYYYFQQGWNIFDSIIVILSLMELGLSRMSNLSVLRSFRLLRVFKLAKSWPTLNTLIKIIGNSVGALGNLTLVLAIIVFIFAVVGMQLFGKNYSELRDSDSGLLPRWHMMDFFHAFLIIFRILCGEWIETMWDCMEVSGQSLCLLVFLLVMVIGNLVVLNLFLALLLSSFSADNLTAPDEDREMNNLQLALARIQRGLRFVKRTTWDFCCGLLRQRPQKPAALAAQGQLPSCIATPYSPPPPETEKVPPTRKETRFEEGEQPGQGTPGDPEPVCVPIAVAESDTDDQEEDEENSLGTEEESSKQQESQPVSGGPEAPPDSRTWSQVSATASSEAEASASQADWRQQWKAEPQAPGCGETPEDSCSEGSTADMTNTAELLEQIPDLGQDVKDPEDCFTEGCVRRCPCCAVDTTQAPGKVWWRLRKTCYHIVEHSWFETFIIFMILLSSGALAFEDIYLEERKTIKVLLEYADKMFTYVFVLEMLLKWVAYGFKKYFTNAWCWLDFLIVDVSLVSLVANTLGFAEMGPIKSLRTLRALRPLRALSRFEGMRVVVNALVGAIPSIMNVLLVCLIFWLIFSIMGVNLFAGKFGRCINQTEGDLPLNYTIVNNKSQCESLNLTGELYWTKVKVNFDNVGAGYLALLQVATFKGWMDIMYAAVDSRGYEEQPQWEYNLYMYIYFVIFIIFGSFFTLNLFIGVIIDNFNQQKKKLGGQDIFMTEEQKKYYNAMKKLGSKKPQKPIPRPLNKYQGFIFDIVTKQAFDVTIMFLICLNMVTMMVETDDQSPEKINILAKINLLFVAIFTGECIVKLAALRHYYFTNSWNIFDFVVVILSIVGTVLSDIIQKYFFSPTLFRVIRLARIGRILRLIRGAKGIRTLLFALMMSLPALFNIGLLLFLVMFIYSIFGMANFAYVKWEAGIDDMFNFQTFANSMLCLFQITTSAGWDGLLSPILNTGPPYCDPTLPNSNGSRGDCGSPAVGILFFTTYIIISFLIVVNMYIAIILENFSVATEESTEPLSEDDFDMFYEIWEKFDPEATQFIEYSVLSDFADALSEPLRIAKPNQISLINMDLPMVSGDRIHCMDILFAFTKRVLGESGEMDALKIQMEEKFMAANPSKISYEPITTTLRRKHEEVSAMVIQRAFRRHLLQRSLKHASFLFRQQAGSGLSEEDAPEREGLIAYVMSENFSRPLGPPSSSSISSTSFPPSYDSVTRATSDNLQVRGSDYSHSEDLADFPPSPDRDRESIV
Sequence of hERG (Q12809 whole entry): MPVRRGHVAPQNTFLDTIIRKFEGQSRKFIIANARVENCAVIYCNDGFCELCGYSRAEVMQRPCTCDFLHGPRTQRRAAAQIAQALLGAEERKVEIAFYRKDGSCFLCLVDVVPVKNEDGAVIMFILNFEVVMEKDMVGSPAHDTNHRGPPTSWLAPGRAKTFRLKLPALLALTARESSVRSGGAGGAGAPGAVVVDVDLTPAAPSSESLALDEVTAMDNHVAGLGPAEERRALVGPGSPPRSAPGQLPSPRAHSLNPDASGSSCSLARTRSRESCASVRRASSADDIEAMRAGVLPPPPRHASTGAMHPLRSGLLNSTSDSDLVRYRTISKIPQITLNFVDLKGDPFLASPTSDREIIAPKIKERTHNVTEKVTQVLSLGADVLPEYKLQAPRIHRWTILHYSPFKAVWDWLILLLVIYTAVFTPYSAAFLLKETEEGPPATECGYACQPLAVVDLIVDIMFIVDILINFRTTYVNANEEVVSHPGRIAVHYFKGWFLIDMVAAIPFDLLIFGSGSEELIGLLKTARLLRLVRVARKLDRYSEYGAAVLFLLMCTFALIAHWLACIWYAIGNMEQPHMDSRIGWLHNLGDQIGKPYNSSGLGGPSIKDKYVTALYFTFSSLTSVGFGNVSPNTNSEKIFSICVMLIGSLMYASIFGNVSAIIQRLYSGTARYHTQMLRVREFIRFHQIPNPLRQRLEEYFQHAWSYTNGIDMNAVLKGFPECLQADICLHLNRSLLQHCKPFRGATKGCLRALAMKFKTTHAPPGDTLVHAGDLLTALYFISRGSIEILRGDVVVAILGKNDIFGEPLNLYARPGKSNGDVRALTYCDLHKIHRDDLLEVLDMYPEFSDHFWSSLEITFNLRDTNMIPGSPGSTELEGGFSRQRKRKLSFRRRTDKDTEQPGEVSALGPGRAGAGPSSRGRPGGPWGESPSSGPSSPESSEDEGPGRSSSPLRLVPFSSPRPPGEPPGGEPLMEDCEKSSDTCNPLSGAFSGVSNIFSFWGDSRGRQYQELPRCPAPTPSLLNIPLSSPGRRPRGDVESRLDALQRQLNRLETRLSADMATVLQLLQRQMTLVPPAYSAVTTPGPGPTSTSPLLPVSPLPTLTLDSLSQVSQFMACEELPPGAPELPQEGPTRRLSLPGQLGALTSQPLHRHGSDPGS
Sequence of Human PXR (O75469 whole entry): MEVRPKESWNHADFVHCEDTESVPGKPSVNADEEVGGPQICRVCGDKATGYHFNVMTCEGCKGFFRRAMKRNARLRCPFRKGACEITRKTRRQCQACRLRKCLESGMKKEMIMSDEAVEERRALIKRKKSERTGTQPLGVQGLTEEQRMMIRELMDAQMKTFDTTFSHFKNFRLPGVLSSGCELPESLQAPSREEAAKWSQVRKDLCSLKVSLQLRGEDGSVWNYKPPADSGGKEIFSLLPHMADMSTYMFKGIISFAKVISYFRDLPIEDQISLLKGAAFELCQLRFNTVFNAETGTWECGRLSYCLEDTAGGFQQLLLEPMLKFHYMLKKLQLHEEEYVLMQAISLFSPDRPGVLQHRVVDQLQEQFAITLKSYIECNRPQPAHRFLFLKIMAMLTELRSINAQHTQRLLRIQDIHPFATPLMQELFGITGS

Compound | Ki [1] [nM] | PXR EC60 [2] [nM] | Human Liver Microsomal Metabolism % remaining (Assay Conditions A) [3] | inhibition at 30 µM [4] [%] | inhibition at 10 µM [5] [%] | Ca, % inh ([6]; 10 μM) [% @ 10 μM] | fraction unbound [7] | fraction unbound [8] | Cmax ([9]; 30 mg/kg, read-out: Cmax: Total drug at QT effect dose) [µM] | Cmax ([9]; NOEL dose 10 mg/kg, read-out: Cmax: Total drug at NOEL dose) [µM] | NOEL dose (No Observed Effect Level) ([10]; iv infusion) [mg/kg] | QT effect Dose ([10]; iv infusion) [mg/kg] | QTcf, delta ([10]; iv infusion, at QT effect dose 30 mg/kg) [ms] | Cmax: Free drug at QT effect dose ([10]; 30 mg/kg) [µM] | Cmax: Free drug at NOEL dose ([10]; NOEL dose 10 mg/kg) [µM] | Ca, % inh ([6]; 30 μM) [% @ 30 μM] | Cmax ([9]; 10 mg/kg, read-out: Cmax: Total drug at QT effect dose) [µM] | QTcf, delta ([10]; iv infusion, at QT effect dose 10 mg/kg) [ms] | Cmax: Free drug at QT effect dose ([10]; 10 mg/kg) [µM] | Cmax: Free drug at NOEL dose ([10]; NOEL not identified (<10 mg/kg)) [µM]
CC(C)NC(=O)N[C@@H](C(=O)N1CC[C@](O)(c2ccc(Cl)cc2)C(C)(C)C1)C(C)C [#850] | 0.5 | 10200 | 99% (A) |  |  |  |  |  |  |  |  |  |  |  |  |  |  |  |  | 
CC(C)[C@@H](NC(=O)c1cccc(S(N)(=O)=O)c1)C(=O)N1CC[C@](O)(c2ccc(Cl)cc2)C(C)(C)C1 [EX# 491] | 2.1 |  |  | 27 | 13 | 22 | 0.05 | 0.06 | 138 | 77 | 10 | 30 | 17 | 5.5 | 3.1 |  |  |  |  | 
CC(C)[C@@H](NC(=O)[C@@H]1CC[C@@H](O)C1)C(=O)N1CC[C@](O)(c2ccc(Cl)cc2)C(C)(C)C1 [EX# 572] | 1.5 |  |  | 32 | 25 |  | 0.16 | 0.13 |  |  |  | 10 |  |  |  | 19 | 48.6 | 22 | 6.3 | < 6.3
CC[C@@H](C)NC(=O)N[C@@H](C(=O)N1CC[C@](O)(c2ccc(Cl)cc2)C(C)(C)C1)C(C)C [#897] | 2.1 | >50000 | 59% (A) |  |  |  |  |  |  |  |  |  |  |  |  |  |  |  |  | 
